Patent US9856279B2 (AGIOS PHARMACEUTICALS, INC, priority 2011, dated 2018)

Key:
[1] = target: IDH1 R132H (Homo sapiens, UniProt O75874, R132H); test: Assay for IDH1 R132H inhibitors (NADPH/aKG, resazurin detection); type: biochemical; details: enzyme assay of Example 12; read-out: IDH1R132H IC50
Procedure, shortened: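 Compound added to substrate mix (8 uM NADPH, 2 mM aKG), then enzyme mix (0.2 μg/ml IDH1 R132H); 50 min RT in 20 mM Tris pH 7.5, 150 mM NaCl, 10 mM MgCl2, 0.03% BSA. Resazurin detection mix (30 μM) 5 min RT; resorufin fluorescence Ex544/Em590.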

[2] = tested on: HT1080 cells; test: Cellular assay for IDH1m inhibitors: inhibition of 2-HG production (LC-MS, 48 hours) in HT1080 cells; type: cell-based; details: Homo sapiens, HT-1080; inhibition of 2-HG production, HT1080 cells; read-out: HT1080 IC50
Experimental: Cells (e.g., HT1080 or U87MG) and are grown in T125 flasks in DMEM containing 10% FBS, 1× penicillin/streptomycin and 500 ug/mL G418. They are harvested by trypsin and seeded into 96 well white bottom plates at a density of 5000 cell/well in 100 ul/well in DMEM with 10% FBS. No cells are plates in columns 1 and 12. Cells are incubated overnight at 37° C. in 5% CO2. The next day compounds are made up at 2× concentration and 100 ul are added to each cell well. The final concentration of DMSO is 0.2% and the DMSO control wells are plated in row G. The plates are then placed in the incubator for 48 hours. At 48 hours, 100 μl of media is removed from each well and analyzed by LC-MS for 2-HG concentrations. The cell plate is placed back in the incubator for another 24 hours. At 72 hours post compound addition, 10 mL/plate of Promega Cell Titer Glo reagent is thawed and mixed. The cell plate is removed from the incubator and allowed to equilibrate to room temperature. Then 100 ul of reagent is added to each well of media. The cell plate is then placed on an orbital shaker for 10 minutes and then allowed to sit at room temperature for 20 minutes. The plate is then read for luminescence with an integration time of 500 ms.
The IC50 for inhibition of 2-HG production (concentration of test compound to reduce 2HG production by 50% compared to control) in these two cell lines for various compounds of formula I is set forth in Table 4 above.

Chain of IDH1 R132H (O75874 whole entry R132H): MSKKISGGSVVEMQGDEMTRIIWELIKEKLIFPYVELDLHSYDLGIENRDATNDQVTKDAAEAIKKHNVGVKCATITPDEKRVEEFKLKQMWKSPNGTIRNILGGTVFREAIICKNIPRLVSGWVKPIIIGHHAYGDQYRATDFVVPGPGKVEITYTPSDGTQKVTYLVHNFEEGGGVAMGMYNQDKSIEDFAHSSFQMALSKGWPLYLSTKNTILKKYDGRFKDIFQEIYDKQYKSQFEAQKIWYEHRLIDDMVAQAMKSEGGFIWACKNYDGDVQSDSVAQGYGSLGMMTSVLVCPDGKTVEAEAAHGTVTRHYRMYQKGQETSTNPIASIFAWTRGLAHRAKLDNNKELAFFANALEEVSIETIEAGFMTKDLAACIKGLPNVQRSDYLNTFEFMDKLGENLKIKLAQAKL

| Compound | IC50 [1] [nM] | IC50 [2] [nM] |
| --- | --- | --- |
| N#Cc1cc(-c2cccc3c(C#N)nccc23)c(C2CC2)nc1N1CCN(C(=O)C2CC2)[C@H](C2CC2)C1 [Compound 511, (R)-5-(5-cyano-6-(4-(cyclopropanecarbonyl)-3-cyclopropylpiperazin-1-yl)-2-cyclopropylpyridin-3-yl)isoquinoline-1-carbonitrile] | < 500 | 500 to 1000 |
| C=Cc1cc(-c2cc(C#N)c(N3CCN(C(=O)CCOC)[C@H](C4CC4)C3)nc2C2CC2)c2ccccc2n1 [Compound 574, (R)-6-cyclopropyl-2-(3-cyclopropyl-4-(3-methoxypropanoyl)piperazin-1-yl)-5-(2-vinylquinolin-4-yl)nicotinonitrile] | < 500 | < 500 |
| C=Cc1ccc2c(-c3cc(C#N)c(N4CCN(C(=O)CCOC)[C@H](C5CC5)C4)nc3C3CC3)cccc2n1 [Compound 570, (R)-6-cyclopropyl-2-(3-cyclopropyl-4-(3-methoxypropanoyl)piperazin-1-yl)-5-(2-vinylquinolin-5-yl)nicotinonitrile] | < 500 | < 500 |
| C=Cc1ccc(Nc2cc(C#N)c(N3CCN(C(=O)CCO)[C@H](C)C3)nc2C2CC2)cn1 [Compound 577, (R)-6-cyclopropyl-2-(4-(3-hydroxypropanoyl)-3-methylpiperazin-1-yl)-5-((6-vinylpyridin-3-yl)amino)nicotinonitrile] | < 500 | < 500 |
| COCCC(=O)N1CCN(c2nc(C3CC3)c(-c3ccc4nccnc4c3)cc2C#N)C[C@H]1C [Compound 445, (R)-6-cyclopropyl-2-(4-(3-methoxypropanoyl)-3-methylpiperazin-1-yl)-5-(quinoxalin-6-yl)nicotinonitrile] | < 500 | 1000 to 10000 |
| C=Cc1cncc(-c2cc(C#N)c(N3CCN(C(=O)C4CC4)[C@H](C4CC4)C3)nc2C2CC2)n1 [Compound 515, (R)-2-(4-(cyclopropanecarbonyl)-3-cyclopropylpiperazin-1-yl)-6-cyclopropyl-5-(6-vinylpyrazin-2-yl)nicotinonitrile] | 500 to 1000 | 1000 to 10000 |
| C=Cc1cnc2c(/C=C/c3cnc4c(-c5cc(C#N)c(N6CCN(C(=O)CCOC)[C@H](C)C6)nc5C5CC5)cccc4n3)cccc2n1 [Compound 604, (R,E)-6-cyclopropyl-2-(4-(3-methoxypropanoyl)-3-methylpiperazin-1-yl)-5-(2-(2-(2-vinylquinoxalin-5-yl)vinyl)quinoxalin-5-yl)nicotinonitrile] | < 500 | < 500 |
| C=Cc1cc(-c2cc(C#N)c(N3CCN(C(=O)CCC(OC)OC)[C@H](C)C3)nc2C2CC2)ccn1 [Compound 606, (R)-2-cyclopropyl-6-(4-(4,4-dimethoxybutanoyl)-3-methylpiperazin-1-yl)-2′-vinyl-[3,4′-bipyridine]-5-carbonitrile] | < 500 | < 500 |
| COCCC(=O)N1CCN(c2nc(C3CC3)c(Oc3ccnc(Cl)c3)cc2C#N)C[C@H]1C [Compound 668, (R)-5-((2-chloropyridin-4-yl)oxy)-6-cyclopropyl-2-(4-(3-methoxypropanoyl)-3-methylpiperazin-1-yl)nicotinonitrile] | < 500 | 500 to 1000 |
| C=Cc1nc(-c2cc(C#N)c(N3CCN(C(=O)C4CC4)[C@H](C4CC4)C3)nc2C2CC2)c2ccccc2n1 [Compound 669, (R)-2-(4-(cyclopropanecarbonyl)-3-cyclopropylpiperazin-1-yl)-6-cyclopropyl-5-(2-vinylquinazolin-4-yl)nicotinonitrile] | < 500 | < 500 |
| Cc1cc2c(-c3cc(C#N)c(N4CCN(C(=O)CCO)[C@H](C)C4)nc3C3CC3)cccc2cn1 [Compound 588, (R)-6-cyclopropyl-2-(4-(3-hydroxypropanoyl)-3-methylpiperazin-1-yl)-5-(3-methylisoquinolin-5-yl)nicotinonitrile] | < 500 | < 500 |
| C=Cc1cc(-c2cc(C#N)c(N3CCN(C(=O)CCOC)[C@H](C)C3)nc2C2CC2)cc(C=C)n1 [Compound 624, (R)-2-cyclopropyl-6-(4-(3-methoxypropanoyl)-3-methylpiperazin-1-yl)-2′,6′-divinyl-[3,4′-bipyridine]-5-carbonitrile] | < 500 | < 500 |
| N#Cc1ccnc(Nc2cc(C#N)c(N3CCN(C(=O)C[C@H]4CCO4)[C@H](C4CC4)C3)nc2C2CC2)c1 [Compound 809, 5-(4-cyanopyridin-2-ylamino)-6-cyclopropyl-2-((R)-3-cyclopropyl-4-(2-((R)-oxetan-2-yl)acetyl)piperazin-1-yl)nicotinonitrile] | < 500 | < 500 |
| C=C(F)c1cc(-c2cc(C#N)c(N3CCN(C(=O)CCOC)[C@H](C)C3)nc2C2CC2)ncn1 [Compound 602, (R)-6-cyclopropyl-5-(6-(1-fluorovinyl)pyrimidin-4-yl)-2-(4-(3-methoxypropanoyl)-3-methylpiperazin-1-yl)nicotinonitrile] | < 500 | < 500 |
| C[C@@H]1CN(c2nc(C3CC3)c(Nc3ccc(C#N)nc3)cc2C#N)CCN1C(=O)CCO [Compound 582, (R)-5-((5-cyano-2-cyclopropyl-6-(4-(3-hydroxypropanoyl)-3-methylpiperazin-1-yl)pyridin-3-yl)amino)picolinonitrile] | < 500 | 1000 to 10000 |
| N#Cc1cc(-c2cccc3cnc(Cl)cc23)c(C2CC2)nc1N1CCN(C(=O)C2CC2)[C@H](C2CC2)C1 [Compound 555, (R)-5-(3-chloroisoquinolin-5-yl)-2-(4-(cyclopropanecarbonyl)-3-cyclopropylpiperazin-1-yl)-6-cyclopropylnicotinonitrile] | < 500 | 500 to 1000 |
| C=C(C)c1cc(-c2cc(C#N)c(N3CCN(C(=O)C4CC4)[C@H](C4CC4)C3)nc2C2CC2)ccn1 [Compound 544, (R)-6-(4-(cyclopropanecarbonyl)-3-cyclopropylpiperazin-1-yl)-2-cyclopropyl-2′-(prop-1-en-2-yl)-3,4′-bipyridine-5-carbonitrile] | < 500 | 500 to 1000 |
| Cc1cc(-c2cc(C#N)c(N3CCN(C(=O)C4CC4)[C@H](C4CC4)C3)nc2C2CC2)c2ccncc2n1 [Compound 553, (R)-2-(4-(cyclopropanecarbonyl)-3-cyclopropylpiperazin-1-yl)-6-cyclopropyl-5-(2-methyl-1,7-naphthyridin-4-yl)nicotinonitrile] | < 500 | < 500 |
| C=CC(=O)N1CCCC(c2cc(C#N)c(N3CCN(C(=O)C4CC4)[C@H](C)C3)nc2C2CC2)C1 (stereo partly drawn) [Compound 576, 5-(1-acryloylpiperidin-3-yl)-2-((R)-4-(cyclopropanecarbonyl)-3-methylpiperazin-1-yl)-6-cyclopropylnicotinonitrile] | 500 to 1000 | < 500 |
| C=Cc1ccnc(Nc2cc(C#N)c(N3CCN(C(=O)CCCO)[C@H](C4CC4)C3)nc2C2CC2)c1 [Compound 815, (R)-6-cyclopropyl-2-(3-cyclopropyl-4-(4-hydroxybutanoyl)piperazin-1-yl)-5-((4-vinylpyridin-2-yl)amino)nicotinonitrile] | < 500 | < 500 |
| C=Cc1cc(-c2cc(C#N)c(N3CCN(C(=O)CCOC)[C@H](C)C3)nc2C2CC2)cc(C#N)n1 [Compound 672, (R)-2-cyclopropyl-6-(4-(3-methoxypropanoyl)-3-methylpiperazin-1-yl)-6′-vinyl-[3,4′-bipyridine]-2′,5-dicarbonitrile] | 500 to 1000 | 1000 to 10000 |
